Experimental data: PubChem BioAssay (NCI)
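Protocol summary: plate cells (96-well), add compound at 5 concentrations, incubate 48 h, interpolate endpoints linearly. At the GI50, growth is halved. TGI: concentration producing complete growth inhibition.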

Legend:
Test in all cases: inhibition of tumour cell growth, NCI panel, 48 h
HCT-116 colon = tested on: HCT-116 colon
HCT-15 colon = tested on: HCT-15 colon
HT29 colon = tested on: HT29 colon
K-562 leukemia = tested on: K-562 leukemia
MOLT-4 leukemia = tested on: MOLT-4 leukemia
OVCAR-8 ovarian = tested on: OVCAR-8 ovarian
RPMI-8226 leukemia = tested on: RPMI-8226 leukemia
SF-539 CNS = tested on: SF-539 CNS
SK-MEL-28 melanoma = tested on: SK-MEL-28 melanoma
SK-OV-3 ovarian = tested on: SK-OV-3 ovarian

Work on `CC(C)=CCC/C(C)=C/CCC1(C)C=Cc2c(c3ccccc3oc2=O)O1` (stereo unspecified) yielded a TGI (HCT-116 colon) of 28 µM, a TGI (HCT-15 colon) of 30.2 µM and a TGI (HT29 colon) of 33.7 µM. The TGI (K-562 leukemia) was greater than 89 µM, the TGI (MOLT-4 leukemia) was greater than 72.7 µM and the TGI (OVCAR-8 ovarian) was 30.3 µM. It also gave a TGI (RPMI-8226 leukemia) of 63.8 µM, a TGI (SF-539 CNS) of 30.5 µM and a TGI (SK-MEL-28 melanoma) of 29.9 µM. For the same molecule, the TGI (SK-OV-3 ovarian) was 50.8 µM.

Work on `c1ccc2cc3c(cc2c1)OP1(Oc2cccc4cccnc24)(O3)Oc2cc3ccccc3cc2O1` yielded a TGI (HCT-116 colon) greater than 100 µM, a TGI (HCT-15 colon) greater than 100 µM and a TGI (HT29 colon) of 12.6 µM. It also gave a TGI (K-562 leukemia) greater than 40.3 µM, a TGI (OVCAR-8 ovarian) greater than 57.1 µM and a TGI (SF-539 CNS) of 49.2 µM. It also gave a TGI (SK-MEL-28 melanoma) greater than 100 µM and a TGI (SK-OV-3 ovarian) greater than 96.6 µM.

`OC1COC(OCc2ccccc2)C(O)C1O` (stereo unspecified) was tested, and the TGI (HCT-116 colon) was greater than 100 µM, the TGI (HCT-15 colon) was greater than 100 µM and the TGI (HT29 colon) was greater than 100 µM. For the same molecule, the TGI (K-562 leukemia) was greater than 100 µM, the TGI (MOLT-4 leukemia) was greater than 100 µM and the TGI (OVCAR-8 ovarian) was greater than 100 µM. It also gave a TGI (RPMI-8226 leukemia) greater than 100 µM, a TGI (SF-539 CNS) greater than 100 µM and a TGI (SK-MEL-28 melanoma) greater than 100 µM. It also gave a TGI (SK-OV-3 ovarian) greater than 100 µM.

In the case of `O=C(O)C12CC3CC(C1)C2C=C3P(=O)(O)O` (stereo unspecified), the TGI (HCT-116 colon) is reported as greater than 100 µM, the TGI (HCT-15 colon) is reported as greater than 100 µM and the TGI (HT29 colon) is reported as greater than 100 µM. For the same molecule, the TGI (K-562 leukemia) was greater than 100 µM, the TGI (MOLT-4 leukemia) was greater than 100 µM and the TGI (OVCAR-8 ovarian) was greater than 100 µM. The TGI (RPMI-8226 leukemia) was greater than 100 µM, the TGI (SK-MEL-28 melanoma) was greater than 100 µM and the TGI (SK-OV-3 ovarian) was greater than 100 µM.

`CC1SC(c2ccc(Cl)cc2)N(CCc2cccs2)C1=O` (stereo unspecified) was tested, and the GI50 (HCT-116 colon) was 1.09 µM, the TGI (HCT-116 colon) was 2.28 µM and the GI50 (HCT-15 colon) was 1.56 µM. It also gave a TGI (HCT-15 colon) of 3.59 µM, a GI50 (HT29 colon) of 1.48 µM and a TGI (HT29 colon) of 3.14 µM. The GI50 (MOLT-4 leukemia) was 2.46 µM, the TGI (MOLT-4 leukemia) was 9.11 µM and the GI50 (OVCAR-8 ovarian) was 1.93 µM. It also gave a TGI (OVCAR-8 ovarian) of 4.08 µM, a GI50 (RPMI-8226 leukemia) of 1.33 µM and a TGI (RPMI-8226 leukemia) of 4.55 µM. The GI50 (SF-539 CNS) was 1.72 µM, the TGI (SF-539 CNS) was 3.21 µM and the GI50 (SK-MEL-28 melanoma) was 1.58 µM. For the same molecule, the TGI (SK-MEL-28 melanoma) was 2.99 µM, the GI50 (SK-OV-3 ovarian) was 2.05 µM and the TGI (SK-OV-3 ovarian) was 5.79 µM.

`COCCOCOC(C)(C)[C@H](CCO)O[Si](c1ccccc1)(c1ccccc1)C(C)(C)C` gave a TGI (HCT-116 colon) of 14.1 µM, a TGI (HCT-15 colon) of 17.5 µM and a TGI (HT29 colon) of 21.4 µM. It also gave a TGI (MOLT-4 leukemia) of 22.9 µM, a TGI (OVCAR-8 ovarian) of 23.5 µM and a TGI (RPMI-8226 leukemia) of 35.5 µM. It also gave a TGI (SF-539 CNS) of 27.4 µM, a TGI (SK-MEL-28 melanoma) of 29.7 µM and a TGI (SK-OV-3 ovarian) of 26.5 µM.

With `Cc1cccc(CNc2ncnc3[nH]ncc23)c1` the TGI (HCT-116 colon) was greater than 100 µM, the TGI (HCT-15 colon) was greater than 100 µM and the TGI (HT29 colon) was greater than 100 µM. The TGI (K-562 leukemia) was greater than 100 µM, the TGI (MOLT-4 leukemia) was greater than 100 µM and the TGI (OVCAR-8 ovarian) was greater than 100 µM. It also gave a TGI (RPMI-8226 leukemia) greater than 100 µM, a TGI (SF-539 CNS) greater than 100 µM and a TGI (SK-MEL-28 melanoma) greater than 100 µM. It also gave a TGI (SK-OV-3 ovarian) greater than 100 µM.

`C=CCNC(=O)CN(CC(=O)OC)C1CCCCC1N(CC(=O)OC)CC(=O)OC` (stereo unspecified) showed a TGI (HCT-116 colon) greater than 100 µM, a TGI (HCT-15 colon) greater than 100 µM and a TGI (HT29 colon) greater than 100 µM. For the same molecule, the TGI (K-562 leukemia) was greater than 100 µM, the TGI (MOLT-4 leukemia) was greater than 100 µM and the TGI (OVCAR-8 ovarian) was greater than 100 µM. It also gave a TGI (RPMI-8226 leukemia) greater than 100 µM, a TGI (SF-539 CNS) greater than 100 µM and a TGI (SK-MEL-28 melanoma) greater than 100 µM. For the same molecule, the TGI (SK-OV-3 ovarian) was greater than 100 µM.

Molecule `O=C1c2ccccc2C(=O)c2c1cc1c(c2[N+](=O)[O-])OCO1` has a GI50 (HCT-116 colon) of 0.641 µM, a TGI (HCT-116 colon) of 4.44 µM and a GI50 (HCT-15 colon) of 2.15 µM. For the same molecule, the TGI (HCT-15 colon) was 8.82 µM, the GI50 (HT29 colon) was 4.24 µM and the TGI (HT29 colon) was 22 µM. It also gave a GI50 (K-562 leukemia) of 0.621 µM, a TGI (K-562 leukemia) of 6.26 µM and a GI50 (MOLT-4 leukemia) of 0.794 µM. It also gave a TGI (MOLT-4 leukemia) greater than 100 µM, a GI50 (OVCAR-8 ovarian) of 1.68 µM and a TGI (OVCAR-8 ovarian) of 10.3 µM. It also gave a GI50 (RPMI-8226 leukemia) of 0.267 µM, a TGI (RPMI-8226 leukemia) of 0.916 µM and a GI50 (SF-539 CNS) of 1.71 µM. It also gave a TGI (SF-539 CNS) of 6.31 µM, a GI50 (SK-MEL-28 melanoma) of 3.52 µM and a TGI (SK-MEL-28 melanoma) of 26.6 µM.

Work on `Cc1cn(C2CC(O)C(Cn3nncc3Cn3ncc(=O)[nH]c3=O)O2)c(=O)[nH]c1=O` (stereo unspecified) yielded a TGI (HCT-116 colon) greater than 100 µM, a TGI (HCT-15 colon) greater than 100 µM and a TGI (MOLT-4 leukemia) greater than 100 µM. For the same molecule, the TGI (OVCAR-8 ovarian) was greater than 100 µM, the TGI (RPMI-8226 leukemia) was greater than 100 µM and the TGI (SF-539 CNS) was greater than 100 µM. The TGI (SK-MEL-28 melanoma) was greater than 100 µM and the TGI (SK-OV-3 ovarian) was greater than 100 µM.

For `Nc1n[nH]c(CCCCCCCc2nc(N)n[nH]2)n1`, the TGI (HCT-116 colon) was greater than 100 µM, the TGI (HCT-15 colon) was greater than 100 µM and the TGI (HT29 colon) was greater than 100 µM. For the same molecule, the TGI (K-562 leukemia) was greater than 100 µM, the TGI (MOLT-4 leukemia) was greater than 100 µM and the TGI (RPMI-8226 leukemia) was greater than 100 µM. It also gave a TGI (SF-539 CNS) greater than 100 µM, a TGI (SK-MEL-28 melanoma) greater than 100 µM and a TGI (SK-OV-3 ovarian) greater than 100 µM.

Work on `COc1cc(C(=O)C2CC3(CCC2(O)c2cc(OC)c(OC)c(OC)c2)CC(=O)Nc2ccccc2C3=O)cc(OC)c1OC` (stereo unspecified) yielded a TGI (HCT-116 colon) greater than 100 µM, a TGI (HCT-15 colon) greater than 100 µM and a TGI (HT29 colon) greater than 100 µM. The TGI (K-562 leukemia) was greater than 100 µM, the TGI (MOLT-4 leukemia) was greater than 100 µM and the TGI (OVCAR-8 ovarian) was greater than 100 µM. It also gave a TGI (SF-539 CNS) greater than 100 µM, a TGI (SK-MEL-28 melanoma) greater than 100 µM and a TGI (SK-OV-3 ovarian) greater than 100 µM.

Molecule `COc1cc(/C=C/C2=C(C#N)C(=O)OC2(C)C)ccc1O` has a TGI (HCT-116 colon) greater than 100 µM, a TGI (HCT-15 colon) of 93.8 µM and a TGI (HT29 colon) greater than 100 µM. It also gave a TGI (K-562 leukemia) greater than 100 µM, a TGI (MOLT-4 leukemia) greater than 100 µM and a TGI (OVCAR-8 ovarian) greater than 100 µM. For the same molecule, the TGI (RPMI-8226 leukemia) was 49.6 µM, the TGI (SK-MEL-28 melanoma) was greater than 100 µM and the TGI (SK-OV-3 ovarian) was greater than 100 µM.

`Cc1c(C2=NN=C(N=Nc3c(O)cccc3O)/C2=C/c2ccccc2)c(=O)n(-c2ccccc2)n1C` showed a TGI (HCT-116 colon) greater than 100 µM, a TGI (HCT-15 colon) greater than 100 µM and a TGI (HT29 colon) greater than 100 µM. The TGI (K-562 leukemia) was greater than 100 µM, the TGI (MOLT-4 leukemia) was greater than 100 µM and the TGI (OVCAR-8 ovarian) was greater than 100 µM. The TGI (RPMI-8226 leukemia) was greater than 100 µM, the TGI (SF-539 CNS) was greater than 100 µM and the TGI (SK-MEL-28 melanoma) was greater than 100 µM. For the same molecule, the TGI (SK-OV-3 ovarian) was greater than 100 µM.

`CC(C)=CC(=O)OC1C2C(C)=CC(O)C(O)C2(C)C2C3(O)OCC24C(CC(=O)OC14)C(C)C3O` (stereo unspecified) gave a TGI (HCT-116 colon) of 0.381 µM, a TGI (HCT-15 colon) of 6.84 µM and a TGI (HT29 colon) of 0.836 µM. It also gave a TGI (K-562 leukemia) of 1.79 µM, a TGI (MOLT-4 leukemia) of 1.31 µM and a TGI (OVCAR-8 ovarian) of 0.82 µM. It also gave a TGI (RPMI-8226 leukemia) of 0.131 µM, a TGI (SF-539 CNS) of 0.187 µM and a TGI (SK-MEL-28 melanoma) of 0.199 µM.
